Source: the supplement of paper PMC11208160

Experiment: recombinant barcode read abundance after kanamycin selection (control-corrected) (log10(CPM+1)); higher = more efficient recombination; sequences stand for … in AGTGCAGAGAAAATCGGCCAGTTTTCTCTGCCTGCAGTCCGCATGCCGT…AGATTTATGCAGCGGACTGCCTTTCTCCCAAAGTGATAAACCGGACAGTATCATGGACCGGTTTTCCCGGTAATCCGTATTTGCAAGGTTGGTTTCACT; site = the 11-nt target
Outline: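 Recombination efficiency draws on barcodes counted at recombinant junctions in a pooled E. coli screen of targets paired with IS621 bridge RNA target-binding loops. The counts were converted to counts per million, averaged and corrected against the chloramphenicol/ampicillin LB agar control, then reported as log10(CPM+1). Selection plates held chloramphenicol/ampicillin/kanamycin with 0.1 mM IPTG, with two replicates per condition.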
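Also: IS621 recombinase and bridge RNA in Escherichia coli cells.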

| Sequence | recombinant barcode read abundance (log10) |
| --- | --- |
| TGGCTCCCTTGGGTTCTAACCTGTTGCGG (site TGGCTCCCTCC) | 0.188 |
| TGGCTCCCTTGGGTTCTAACCTGTTGCGG (site TGGCTCCCTCG) | 0.12 |
| TGGGACTCTTGGGTTCTAACCTGTTGCCA (site TCGGACACTTG) | 0.328 |
| TGGGACTCTTGGGTTCTAACCTGTTGCCA (site TGGGACTCTTG) | 2.29 |
| TGGGATCCTTGGGTTCTAACCTGTTGCAT (site AGGGGTCCTAT) | 0.0813 |
| TGGGATCCTTGGGTTCTAACCTGTTGCAT (site TGGGATCCTAT) | 1.73 |
| TGGGGCCCTTGGGTTCTAACCTGTTGCCT (site TGGGGCCCTAG) | 1.66 |
| TGGGGCCCTTGGGTTCTAACCTGTTGCCT (site TGGTGCCCTAC) | 0.156 |
| TGGGGTCCTTGGGTTCTAACCTGTTGCCT (site TGGAGTCCTAG) | 1.52 |
| TGGGGTCCTTGGGTTCTAACCTGTTGCCT (site TGGCGTCCTAG) | 0.0786 |
| TGGGGTCCTTGGGTTCTAACCTGTTGCCT (site TGGGGTCCTAG) | 2.33 |
| TGGGGTCCTTGGGTTCTAACCTGTTGCCT (site TGGTGTCCTAG) | 0.217 |
| TGGGTCCCTTGGGTTCTAACCTGTTGCCT (site TGAGTCCCTAG) | 2.14 |
| TGGGTCCCTTGGGTTCTAACCTGTTGCCT (site TGCGTCCCTAG) | 0.102 |
| TGGGTCCCTTGGGTTCTAACCTGTTGCCT (site TGGGTCCCTAG) | 3 |
| TGGGTCCCTTGGGTTCTAACCTGTTGCCT (site TGTGTCCCTAG) | 0.0764 |
| TGGTACCCTTGGGTTCTAACCTGTTGCCT (site TGGTACCCTAG) | 1.64 |
| TGGTACCCTTGGGTTCTAACCTGTTGCCT (site TGTTACCCTAG) | 0.126 |
| TGGTATTCTTGGGTTCTAACCTGTTGCCT (site TGGTATACTAG) | 0.0539 |
| TGGTATTCTTGGGTTCTAACCTGTTGCCT (site TGGTATCCTAG) | 0.113 |
| TGGTATTCTTGGGTTCTAACCTGTTGCCT (site TGGTATGCTAG) | 0.11 |
| TGGTATTCTTGGGTTCTAACCTGTTGCCT (site TGGTATTCTAG) | 0.373 |
| TGGTCCGCTTGGGTTCTAACCTGTTGCCT (site TGGTACGCTAG) | 0.257 |
| TGGTCCGCTTGGGTTCTAACCTGTTGCCT (site TGGTCCGCTAG) | 1.58 |
| TGGTCCGCTTGGGTTCTAACCTGTTGCCT (site TGGTGCGCTAG) | 0.0483 |
| TGGTCCGCTTGGGTTCTAACCTGTTGCCT (site TGGTTCGCTAG) | 0.243 |

| Sequence | recombinant barcode read abundance (log10) |
| --- | --- |
| TGGTGCCCTTGGGTTCTAACCTGTTGCGT (site TGGGGCCCTAG) | 0.122 |
| TGGTGCCCTTGGGTTCTAACCTGTTGCGT (site TGGTGCCCTAC) | 1.83 |
| TGGTTACCTTGGGTTCTAACCTGTTGCCT (site TGGTTACCTAG) | 1.17 |
| TGGTTACCTTGGGTTCTAACCTGTTGCCT (site TGTTTAACTAG) | 0.0377 |
| TGTACGTCTTGGGTTCTAACCTGTTGCTT (site TGTACGACTAG) | 0.0847 |
| TGTACGTCTTGGGTTCTAACCTGTTGCTT (site TGTACGTCTAA) | 0.326 |
| TGTAGAGCTTGGGTTCTAACCTGTTGCAG (site TGTAGAGCTCT) | 0.872 |
| TGTAGAGCTTGGGTTCTAACCTGTTGCAG (site TGTTGAGCTCT) | 0.0298 |
| TGTAGCACTTGGGTTCTAACCTGTTGCAC (site TGTAGCACTGT) | 0.0233 |
| TGTAGCACTTGGGTTCTAACCTGTTGCAC (site TGTCGCACTCT) | 0.159 |
| TGTAGTCCTTGGGTTCTAACCTGTTGCAT (site TGTAGTCCTAA) | 0.232 |
| TGTAGTCCTTGGGTTCTAACCTGTTGCAT (site TGTAGTCCTAC) | 0.0299 |
| TGTAGTCCTTGGGTTCTAACCTGTTGCAT (site TGTAGTCCTAG) | 0.156 |
| TGTAGTCCTTGGGTTCTAACCTGTTGCAT (site TGTAGTCCTAT) | 0.097 |
| TGTAGTCCTTGGGTTCTAACCTGTTGCCT (site TGTAGTCCTAA) | 0.0423 |
| TGTAGTCCTTGGGTTCTAACCTGTTGCCT (site TGTAGTCCTAC) | 0.0647 |
| TGTAGTCCTTGGGTTCTAACCTGTTGCCT (site TGTAGTCCTAG) | 0.26 |
| TGTAGTCCTTGGGTTCTAACCTGTTGCCT (site TGTAGTCCTAT) | 0.348 |
| TGTATCGCTTGGGTTCTAACCTGTTGCCT (site TGTATCGCTAG) | 0.405 |
| TGTATCGCTTGGGTTCTAACCTGTTGCCT (site TGTCCCGCTAG) | 0.149 |
| TGTCAAACTTGGGTTCTAACCTGTTGCCT (site TGTCAAACTAG) | 0.298 |
| TGTCAAACTTGGGTTCTAACCTGTTGCCT (site TGTCAACCTAG) | 0.176 |
| TGTCAAACTTGGGTTCTAACCTGTTGCCT (site TGTCAAGCTAG) | 0.145 |
| TGTCAAACTTGGGTTCTAACCTGTTGCCT (site TGTCAATCTAG) | 0.0654 |
| TGTCAATCTTGGGTTCTAACCTGTTGCCT (site TGTCAAACTAG) | 0.243 |
| TGTCAATCTTGGGTTCTAACCTGTTGCCT (site TGTCAACCTAG) | 0.061 |

| Sequence | recombinant barcode read abundance (log10) |
| --- | --- |
| TGTCAATCTTGGGTTCTAACCTGTTGCCT (site TGTCAAGCTAG) | 0.0211 |
| TGTCAATCTTGGGTTCTAACCTGTTGCCT (site TGTCAATCTAG) | 0.0947 |
| TGTCAATCTTGGGTTCTAACCTGTTGCGT (site TGTCAATCTAC) | 0.543 |
| TGTCAATCTTGGGTTCTAACCTGTTGCGT (site TGTCGATCTAG) | 0.152 |
| TGTCAGGCTTGGGTTCTAACCTGTTGCCT (site TGCTAGGCTAG) | 0.187 |
| TGTCAGGCTTGGGTTCTAACCTGTTGCCT (site TGTCAGGCTAG) | 0.0749 |
| TGTCGCACTTGGGTTCTAACCTGTTGCAG (site TGTAGCACTGT) | 0.123 |
| TGTCGCACTTGGGTTCTAACCTGTTGCAG (site TGTCGCACTCT) | 0.313 |
| TGTCTACCTTGGGTTCTAACCTGTTGCCT (site TGTCTACCTAG) | 0.191 |
| TGTCTACCTTGGGTTCTAACCTGTTGCCT (site TGTCTATCTAG) | 0.653 |
| TGTCTAGCTTGGGTTCTAACCTGTTGCCT (site TGACTAGCTAG) | 0.486 |
| TGTCTAGCTTGGGTTCTAACCTGTTGCCT (site TGCCTAGCTAG) | 0.0303 |
| TGTCTAGCTTGGGTTCTAACCTGTTGCCT (site TGGCTAGCTAG) | 0.0711 |
| TGTCTAGCTTGGGTTCTAACCTGTTGCCT (site TGTCTAGCTAG) | 0.038 |
| TGTCTCCCTTGGGTTCTAACCTGTTGCCG (site TGTCTCCCTCG) | 0.261 |
| TGTCTCCCTTGGGTTCTAACCTGTTGCCG (site TGTGTCCCTCG) | 0.108 |
| TGTCTGCCTTGGGTTCTAACCTGTTGCCT (site AGTCTGCCTAG) | 0.104 |
| TGTCTGCCTTGGGTTCTAACCTGTTGCCT (site CGTCTGCCTAG) | 0.122 |
| TGTCTGCCTTGGGTTCTAACCTGTTGCCT (site GGTCTGCCTAG) | 0.0534 |
| TGTCTGCCTTGGGTTCTAACCTGTTGCCT (site TGTCTGCCTAG) | 0.295 |
| TGTGAGTCTTGGGTTCTAACCTGTTGCAT (site TGTGAGTCTAA) | 0.107 |
| TGTGAGTCTTGGGTTCTAACCTGTTGCAT (site TGTGAGTCTAC) | 0.856 |
| TGTGAGTCTTGGGTTCTAACCTGTTGCAT (site TGTGAGTCTAG) | 0.149 |
| TGTGAGTCTTGGGTTCTAACCTGTTGCAT (site TGTGAGTCTAT) | 1.7 |
| TGTGATCCTTGGGTTCTAACCTGTTGCAT (site TGAGATTCTAT) | 0.0352 |
